The molecules below were run against T1, EED (Homo sapiens, UniProt O75530) (assay: EED Proteolytic Activity Evaluation 2 (western blot, Hela cells)). Settings: 1 nM, 10 nM, 100 nM and 1000 nM, 20 hours of treatment.
T1 construct: 2×10^5 Hela cells were injected into a 12-well plate; endogenous in cells; host or cells: HeLa
T1 sequence (O75530 whole entry): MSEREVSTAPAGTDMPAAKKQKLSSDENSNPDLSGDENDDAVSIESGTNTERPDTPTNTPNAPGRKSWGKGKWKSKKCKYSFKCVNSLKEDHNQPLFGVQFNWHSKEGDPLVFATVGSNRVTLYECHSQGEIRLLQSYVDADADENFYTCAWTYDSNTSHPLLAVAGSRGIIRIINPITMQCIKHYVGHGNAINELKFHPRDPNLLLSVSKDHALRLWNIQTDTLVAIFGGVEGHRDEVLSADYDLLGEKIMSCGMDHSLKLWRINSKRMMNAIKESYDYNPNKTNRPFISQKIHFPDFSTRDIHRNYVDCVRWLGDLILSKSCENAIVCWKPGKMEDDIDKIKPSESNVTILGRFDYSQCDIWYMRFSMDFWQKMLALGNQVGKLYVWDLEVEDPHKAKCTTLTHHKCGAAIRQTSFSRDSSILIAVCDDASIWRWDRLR
Type: cell-based
Description: [Experiment 2] EED Proteolytic Activity Evaluation 2
In order to evaluate the EED proteolytic activity of the compound according to the present invention, an experiment was conducted as follows.
Specifically, 2×10^5 Hela cells were injected into a 12-well plate, and after 8 hours of stabilization, each well was treated with the example compounds to have final concentrations of 1 nM, 10 nM, 100 nM, and 1000 nM. One well was treated with the volume of DMSO contained in the sample corresponding to the highest concentration in the experimental group. After 20 hours of treatment, the cells were collected and lysed using 80 μl of SDS Lysis buffer (50 mM Tris pH8.0, 1% SDS, 1 mM EDTA, 0.5 mM PMSF, and protease inhibitor cocktail) and then sonication (30 sec on/59 sec off), 5 cycles) to prepare a cell lysate, followed by protein quantification through BCA, followed by Western blot, and the results are shown in Table 3. (Maximum EED degradation rate: A: >50%, B: 25-50%, C: <25%)
For Cc1cccc(F)c1CN1C[C@H](c2ccc(N3CCN(C(=O)CC4CCN(C(=O)COc5cccc6c5C(=O)N(C5CCC(=O)NC5=O)C6=O)CC4)CC3)cc2)[C@@H](N(C)C)C1 (stereo partly drawn) [Example 143, 4-(2-(4-(2-(4-(4-((3S,4R)-4-(dimethylamino)-1-(2-fluoro-6-methylbenzyl)pyrrolidin-3-yl)phenyl)piperazin-1-yl)-2-oxoethyl)piperidin-1-yl)-2-oxoethoxy)-2-(2,6-dioxopiperidin-3-yl)isoindolin-1,3-dione], the “EED degradation rate (Maximum EED degradation rate)” value (shortened to “EED degradation rate”) was “A (A: >50%)”. For Cc1cccc(F)c1CN1C[C@H](c2ccc(N3CCN(C(=O)CC4CCN(c5ccc6c(c5)C(=O)N(C5CCC(=O)NC5=O)C6=O)CC4)CC3)cc2)[C@@H](N(C)C)C1 (stereo partly drawn) [Example 132, 5-(4-(2-(4-(4-((3S,4R)-4-(dimethylamino)-1-(2-fluoro-6-methylbenzyl)pyrrolidin-3-yl)phenyl)piperazin-1-yl)-2-oxoethyl)piperidin-1-yl)-2-(2,6-dioxopiperidin-3-yl)isoindolin-1,3-dione], the “EED degradation rate” value was “A (A: >50%)”. With Cc1cccc(F)c1CN1C[C@H](c2ccc(N3CCN(C(=O)CCCCCCCNc4cccc5c4C(=O)N(C4CCC(=O)NC4=O)C5=O)CC3)cc2)[C@@H](N(C)C)C1 (stereo partly drawn) [Example 125, 4-((8-(4-(4-((3S,4R)-4-(dimethylamino)-1-(2-fluoro-6-methylbenzyl)pyrrolidin-3-yl)phenyl)piperazin-1-yl)-8-oxooctyl)amino)-2-(2,6-dioxopiperidin-3-yl)isoindolin-1,3-dione] the “EED degradation rate” value was “A (A: >50%)”. In the case of Cc1cccc(F)c1CN1C[C@H](c2ccc(N3CCN(C(=O)CCC4CCN(c5cccc6c5C(=O)N(C5CCC(=O)NC5=O)C6=O)CC4)CC3)cc2)[C@@H](N(C)C)C1 (stereo partly drawn) [Example 141, 4-(4-(3-(4-(4-((3S,4R)-4-(dimethylamino)-1-(2-fluoro-6-methylbenzyl)pyrrolidin-3-yl)phenyl)piperazin-1-yl)-3-oxopropyl)piperidin-1-yl)-2-(2,6-dioxopiperidin-3-yl)isoindolin-1,3-dione], the “EED degradation rate” value was “B (B: 25-50%)”. In the case of Cc1cccc(F)c1CN1C[C@H](c2ccc(N3CCN(C(=O)CC4CCN(C(=O)COc5ccc6c(c5)C(=O)N(C5CCC(=O)NC5=O)C6=O)CC4)CC3)cc2)[C@@H](N(C)C)C1 (stereo partly drawn) [Example 145, 5-(2-(4-(2-(4-(4-((3S,4R)-4-(dimethylamino)-1-(2-fluoro-6-methylbenzyl)pyrrolidin-3-yl)phenyl)piperazin-1-yl)-2-oxoethyl)piperidin-1-yl)-2-oxoethoxy)-2-(2,6-dioxopiperidin-3-yl)isoindolin-1,3-dione], the “EED degradation rate” value was “B (B: 25-50%)”. Cc1cccc(F)c1CN1C[C@H](c2ccc(N3CCN(C(=O)CCCCCNc4ccc5c(c4)C(=O)N(C4CCC(=O)NC4=O)C5=O)CC3)cc2)[C@@H](N(C)C)C1 (stereo partly drawn) [Example 138, 5-((6-(4-(4-((3S,4R)-4-(dimethylamino)-1-(2-fluoro-6-methylbenzyl)pyrrolidin-3-yl)phenyl)piperazin-1-yl)-6-oxohexyl)amino)-2-(2,6-dioxopiperidin-3-yl)isoindolin-1,3-dione] was tested, and the “EED degradation rate” value was “B (B: 25-50%)”. Cc1cccc(F)c1CN1C[C@H](c2ccc(N3CCN(CC4CCN(c5ccc6c(c5)C(=O)N(C5CCC(=O)NC5=O)C6=O)CC4)CC3)cc2)[C@@H](N(C)C)C1 (stereo partly drawn) [Example 131, 5-(4-((4-(4-((3S,4R)-4-(dimethylamino)-1-(2-fluoro-6-methylbenzyl)pyrrolidin-3-yl)phenyl)piperazin-1-yl)methyl)piperidin-1-yl)-2-(2,6-dioxopiperidin-3-yl)isoindolin-1,3-dione] was tested, and the “EED degradation rate” value was “A (A: >50%)”. Cc1cccc(F)c1CN1C[C@H](c2ccc(N3CCN(CCC4CCN(C(=O)COc5ccc6c(c5)C(=O)N(C5CCC(=O)NC5=O)C6=O)CC4)CC3)cc2)[C@@H](N(C)C)C1 (stereo partly drawn) [Example 150, 5-(2-(4-(2-(4-(4-((3S,4R)-4-(dimethylamino)-1-(2-fluoro-6-methylbenzyl)pyrrolidin-3-yl)phenyl)piperazin-1-yl)ethyl)piperidin-1-yl)-2-oxoethoxy)-2-(2,6-dioxopiperidin-3-yl)isoindolin-1,3-dione] was tested, and the “EED degradation rate” value was “A (A: >50%)”. O=C(CNc1ccc2nnn(C3CCC(=O)NC3=O)c(=O)c2c1)NCCOCCOCCN1CCC(n2cc(-c3cnc(NCc4ccco4)n4cnnc34)cn2)CC1 (stereo not shown) [Example 130, 2-((3-(2,6-dioxopiperidin-3-yl)-4-oxo-3,4-dihydrobenzo[d][1,2,3]triazin-6-yl)amino)-N-(2-(2-(2-(4-(4-(5-((furan-2-ylmethyl)amino)-[1,2,4]triazolo[4,3-c]pyrimidin-8-yl)-1H-pyrazol-1-yl)piperidin-1-yl)ethoxy)ethoxy)ethyl)acetamide] was tested, and the “EED degradation rate” value was “C (C: <25%)”. Cc1cccc(F)c1CN1C[C@H](c2ccc(N3CCN(C(=O)CCC4CCN(C(=O)CNc5cccc6c5C(=O)N(C5CCC(=O)NC5=O)C6=O)CC4)CC3)cc2)[C@@H](N(C)C)C1 (stereo partly drawn) [Example 149, 4-((2-(4-(3-(4-(4-((3S,4R)-4-(dimethylamino)-1-(2-fluoro-6-methylbenzyl)pyrrolidin-3-yl)phenyl)piperazin-1-yl)-3-oxopropyl)piperidin-1-yl)-2-oxoethyl)amino)-2-(2,6-dioxopiperidin-3-yl)isoindolin-1,3-dione] was tested, and the “EED degradation rate” value was “B (B: 25-50%)”. With Cc1cccc(F)c1CN1C[C@H](c2ccc(N3CCN(C(=O)CC4CCN(C(=O)CNc5cccc6c5C(=O)N(C5CCC(=O)NC5=O)C6=O)CC4)CC3)cc2)[C@@H](N(C)C)C1 (stereo partly drawn) [Example 144, 4-((2-(4-(2-(4-(4-((3S,4R)-4-(dimethylamino)-1-(2-fluoro-6-methylbenzyl)pyrrolidin-3-yl)phenyl)piperazin-1-yl)-2-oxoethyl)piperidin-1-yl)-2-oxoethyl)amino)-2-(2,6-dioxopiperidin-3-yl)isoindolin-1,3-dione] the “EED degradation rate” value was “A (A: >50%)”. In the case of Cc1cccc(F)c1CN1C[C@H](c2ccc(N3CCN(CC4CCN(c5cccc6c5C(=O)N(C5CCC(=O)NC5=O)C6=O)CC4)CC3)cc2)[C@@H](N(C)C)C1 (stereo partly drawn) [Example 139, 4-(4-((4-(4-((3S,4R)-4-(dimethylamino)-1-(2-fluoro-6-methylbenzyl)pyrrolidin-3-yl)phenyl)piperazin-1-yl)methyl)piperidin-1-yl)-2-(2,6-dioxopiperidin-3-yl)isoindolin-1,3-dione], the “EED degradation rate” value was “C (C: <25%)”. In the case of Cc1cccc(F)c1CN1C[C@H](c2ccc(N3CCN(C(=O)CCC4CCN(C(=O)COc5cccc6c5C(=O)N(C5CCC(=O)NC5=O)C6=O)CC4)CC3)cc2)[C@@H](N(C)C)C1 (stereo partly drawn) [Example 148, 4-(2-(4-(3-(4-(4-((3S,4R)-4-(dimethylamino)-1-(2-fluoro-6-methylbenzyl)pyrrolidin-3-yl)phenyl)piperazin-1-yl)-3-oxopropyl)piperidin-1-yl)-2-oxoethoxy)-2-(2,6-dioxopiperidin-3-yl)isoindolin-1,3-dione], the “EED degradation rate” value was “A (A: >50%)”.

— patent US20220105188A1, “TARGET PROTEIN EED DEGRADATION-INDUCING DEGRADUCER, PREPARATION METHOD THEREOF, AND PHARMACEUTICAL COMPOSITION FOR PREVENTING OR TREATING DISEASES RELATED TO EED, EZH2, OR PRC2, COMPRISING SAME AS ACTIVE INGREDIENT” (KOREA RESEARCH INSTITUTE OF CHEMICAL TECHNOLOGY, priority 2019, published 2022)
